Measurements as given in patent US9695155B2, “Herbicidal substituted pyrimidinyloxy benzene compounds” (E. I. DU PONT DE NEMOURS AND COMPANY, priority 2013, dated 2017).

Assays:
barnyardgrass [1] = experiment: Test A preemergence; format: in vivo, Echinochloa crus-galli; settings: for Plant response rating, Barnyardgrass: 0 to 100 scale where 0 is no effect and 100 is complete control
Procedure, shortened: (§1)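 Scoring: eye-based comparison with untreated controls, 0 for no effect through 100 for complete control, at about day 10. Treatments: directed soil spray preemergence; foliar spray postemergence on 2–10 cm plants at the one- to two-leaf stage. Medium: loam soil with sand.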

barnyardgrass [2] = experiment: Test A postemergence; format: in vivo, Echinochloa crus-galli
Procedure, shortened: as §1

pigweed = experiment: Test A postemergence; format: in vivo, Amaranthus retroflexus
Procedure, shortened: as §1

rice = experiment: Test B flooded paddy test; format: in vivo, Oryza sativa; settings: Flood, 250 g ai/ha; 0 to 100 scale where 0 is no effect and 100 is complete control
Procedure, shortened: (§2)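 Greenhouse flooded-pot test: compounds dosed into 3 cm standing water over 2-leaf plants, flood held constant. Rated visually after 13–15 days on 0–100 (complete control = 100); a dash marks no test result.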

sedge, umbrella = experiment: Test B flooded paddy test; format: in vivo, Cyperus difformis; settings: Flood, 250 g ai/ha; 0 to 100 scale where 0 is no effect and 100 is complete control
Procedure, shortened: as §2

barnyardgrass [3] = experiment: Test B flooded paddy test; format: in vivo, Echinochloa crus-galli; settings: Flood, 250 g ai/ha; 0 to 100 scale where 0 is no effect and 100 is complete control
Procedure, shortened: as §2

large (Lg) crabgrass = experiment: Test C postemergence; format: in vivo, Digitaria sanguinalis
Procedure, shortened: (§3)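 Sown in loam/sand → sprayed pre-emergence; or grown to 1–4 leaves in peat mix → sprayed post-emergence. Same solvent/surfactant formulation both ways. Greenhouse 13–15 d. Score 0–100 visual.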

giant foxtail = experiment: Test C postemergence; format: in vivo, Setaria faberii
Procedure, shortened: as §3

lambsquarters = experiment: Test C postemergence; format: in vivo, Chenopodium album; settings: for Plant response rating, Lambsquarters: scale 0 to 100 (0 no effect, 100 complete control)
Procedure, shortened: as §3

morningglory = experiment: Test C postemergence; format: in vivo, Ipomoea coccinea; settings: for Plant response rating, Morningglory: scale 0 to 100 (0 no effect, 100 complete control)
Procedure, shortened: as §3

yellow nutsedge = experiment: Test C postemergence; format: in vivo, Cyperus esculentus; settings: for Plant response rating, Nutsedge, Yellow: scale 0 to 100 (0 no effect, 100 complete control)
Procedure, shortened: as §3

barnyardgrass [4] = experiment: Test C postemergence; format: in vivo, Echinochloa crus-galli
Procedure, shortened: as §3

wild oat = experiment: Test C postemergence; format: in vivo, Avena fatua; settings: for Plant response rating, Oat, Wild: scale 0 to 100 (0 no effect, 100 complete control)
Procedure, shortened: as §3

chickweed = experiment: Test C postemergence; format: in vivo, Stellaria media
Procedure, shortened: as §3

[5] = 31 g ai/ha, 0 to 100 scale, 0 no effect, 100 complete control
[6] = 125 g ai/ha, 0 to 100 scale where 0 is no effect and 100 is complete control
[7] = 16 g ai/ha, postemergence, 0 is no effect, 100 is complete control
[8] = 125 g ai/ha, postemergence, visual rating, scale 0 to 100 (0 no effect, 100 complete control)
[9] = Postemergence, 62 g ai/ha, scale 0 to 100 (0 no effect, 100 complete control)
[10] = 125 g ai/ha, postemergence, visual rating
[11] = Postemergence, 31 g ai/ha, scale 0 to 100 (0 no effect, 100 complete control), 13 to 15 days
[12] = 16 g ai/ha, postemergence, visual rating, scale 0 to 100 (0 no effect, 100 complete control), 13 to 15 days
[13] = Postemergence, 31 g ai/ha, 13 to 15 days

N#Cc1cnn(-c2c(Br)cccc2Oc2ncc(Cl)cn2)c1 [Compound 140]
Plant response rating, Barnyardgrass (barnyardgrass [1]; 31 g ai/ha, visual, approximately 10 days): 30 | Plant response rating, Barnyardgrass (barnyardgrass [1]; 125 g ai/ha): 70 | Plant response rating, Barnyardgrass (barnyardgrass [2]; [5]): 30 | Barnyardgrass plant response rating (barnyardgrass [2]; [6]): 70 | Plant response rating, Pigweed (pigweed; [5]): 90 | Pigweed plant response rating (pigweed; [6]): 100 | Plant response rating, Rice (rice): 0 | Plant response rating, Sedge, Umbrella (sedge, umbrella): 80 | Plant response rating, Barnyardgrass (barnyardgrass [3]): 20 | Plant response rating (0 to 100), Crabgrass, Large (large (Lg) crabgrass; [7]): 10 | Plant response rating, Crabgrass, Large (large (Lg) crabgrass; [8]): 20 | Plant response rating, Crabgrass, Large (large (Lg) crabgrass; [9]): 15 | Plant response rating (0 to 100), Foxtail, Giant (giant foxtail; [7]): 5 | Plant response rating, Foxtail, Giant (giant foxtail; [8]): 20 | Plant response rating, Foxtail, Giant (giant foxtail; [9]): 20 | Plant response rating (0 to 100), Lambsquarters (lambsquarters; [7]): 35 | Plant response rating, Lambsquarters (lambsquarters; [10]): 85 | Plant response rating, Lambsquarters (lambsquarters; Postemergence, 62 g ai/ha): 80 | Plant response rating (0 to 100), Morningglory (morningglory; [7]): 0 | Plant response rating, Morningglory (morningglory; [10]): 70 | Plant response rating, Morningglory (morningglory; Postemergence, 62 g ai/ha): 75 | Plant response rating (0 to 100), Nutsedge, Yellow (yellow nutsedge; [7]): 0 | Plant response rating, Nutsedge, Yellow (yellow nutsedge; [10]): 5 | Plant response rating, Nutsedge, Yellow (yellow nutsedge; Postemergence, 62 g ai/ha): 5 | Plant response rating (0 to 100), Barnyardgrass (barnyardgrass [4]; [7]): 5 | Plant response rating, Barnyardgrass (barnyardgrass [4]; [8]): 10 | Plant response rating, Barnyardgrass (barnyardgrass [4]; [11]): 10 | Plant response rating, Barnyardgrass (barnyardgrass [4]; [9]): 10 | Plant response rating (0 to 100), Oat, Wild (wild oat; [7]): 0 | Plant response rating, Oat, Wild (wild oat; [10]): 5 | Plant response rating, Oat, Wild (wild oat; Postemergence, 62 g ai/ha): 0 | Plant response rating (0 to 100), Chickweed (chickweed; [7]): 30 | Plant response rating, Chickweed (chickweed; [8]): 70 | Plant response rating, Chickweed (chickweed; [9]): 45

CC(C)c1cnn(-c2c(C#N)cccc2Oc2ncc(Cl)cn2)c1 [Compound 85]
Plant response rating, Barnyardgrass (barnyardgrass [1]; 125 g ai/ha): 20 | Barnyardgrass plant response rating (barnyardgrass [1]; 500 g ai/ha, 0 to 100 scale, 0 no effect, 100 complete control, approx. 10 days): 100 | Plant response rating, Barnyardgrass (barnyardgrass [2]; [6]): 90 | Plant response rating, Barnyardgrass (barnyardgrass [2]; 500 g ai/ha, 0 to 100 scale, 0 no effect, 100 complete control): 90 | Plant response rating, Pigweed (pigweed; [6]): 80 | Plant response rating, Pigweed (pigweed; 500 g ai/ha, 0 to 100 scale where 0 is no effect and 100 is complete control): 100 | Plant response rating, Rice (rice): 10 | Plant response rating, Sedge, Umbrella (sedge, umbrella): 30 | Plant response rating, Barnyardgrass (barnyardgrass [3]): 0 | Crabgrass, Large plant response rating (large (Lg) crabgrass; [12]): 10 | Plant response rating (0 to 100), Crabgrass, Large (large (Lg) crabgrass; 125 g ai/ha, postemergence): 10 | Plant response rating, Crabgrass, Large (large (Lg) crabgrass; [11]): 10 | Plant response rating, Crabgrass, Large (large (Lg) crabgrass; [9]): 5 | Foxtail, Giant plant response rating (giant foxtail; [12]): 5 | Plant response rating (0 to 100), Foxtail, Giant (giant foxtail; 125 g ai/ha, postemergence): 15 | Plant response rating, Foxtail, Giant (giant foxtail; [11]): 10 | Plant response rating, Foxtail, Giant (giant foxtail; [9]): 10 | Plant response rating (0 to 100), Lambsquarters (lambsquarters; 125 g ai/ha, postemergence): 70 | Plant response rating, Lambsquarters (lambsquarters; [13]): 55 | Plant response rating, Lambsquarters (lambsquarters; Postemergence, 62 g ai/ha): 75 | Plant response rating (0 to 100), Morningglory (morningglory; 125 g ai/ha, postemergence): 40 | Plant response rating, Morningglory (morningglory; [13]): 60 | Plant response rating, Morningglory (morningglory; Postemergence, 62 g ai/ha): 25 | Plant response rating (0 to 100), Nutsedge, Yellow (yellow nutsedge; 125 g ai/ha, postemergence): 10 | Plant response rating, Nutsedge, Yellow (yellow nutsedge; [13]): 5 | Plant response rating, Nutsedge, Yellow (yellow nutsedge; Postemergence, 62 g ai/ha): 5 | Barnyardgrass plant response rating (barnyardgrass [4]; [12]): 10 | Plant response rating (0 to 100), Barnyardgrass (barnyardgrass [4]; 125 g ai/ha, postemergence): 5 | Plant response rating, Barnyardgrass (barnyardgrass [4]; [11]): 5 | Plant response rating, Barnyardgrass (barnyardgrass [4]; [9]): 5 | Plant response rating (0 to 100), Oat, Wild (wild oat; 125 g ai/ha, postemergence): 5 | Plant response rating, Oat, Wild (wild oat; [13]): 0 | Plant response rating, Oat, Wild (wild oat; Postemergence, 62 g ai/ha): 5 | Chickweed plant response rating (chickweed; [12]): 5 | Plant response rating (0 to 100), Chickweed (chickweed; 125 g ai/ha, postemergence): 40 | Plant response rating, Chickweed (chickweed; [11]): 40 | Plant response rating, Chickweed (chickweed; [9]): 50
